Test results taken from ChEMBL document CHEMBL1201862, “PubChem BioAssay data set” (2004).
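Protocol summary: plate cells (96-well), add compound at 5 concentrations, incubate 48 h, interpolate endpoints linearly. GI50 is the concentration that inhibits growth by half.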 Calls of active or inactive are those of the source. No stated cut-off is given here; in the data, active = GI50 up to about 1.1 µM and inactive = higher.

Columns and labels:
Assay in all cases: NCI anticancer screen, dose series, 48 h
LXFL 529 = system: LXFL 529
SNB-78 = system: SNB-78
XF498 = system: XF498
DMS-273 = system: DMS-273
M19-MEL = system: M19-MEL
RXF 631 = system: RXF 631
DMS-114 = system: DMS-114
KM-20L2 = system: KM-20L2
HOP-18 = system: HOP-18

SMILES | GI50 (LXFL 529) | GI50 (SNB-78) | GI50 (XF498) | GI50 (DMS-273) | GI50 (M19-MEL) | GI50 (RXF 631) | GI50 (DMS-114) | GI50 (KM-20L2) | GI50 (HOP-18)
C[C@]12CCC(=O)C=C1CC[C@@H]1C2CC[C@]2(C)Nc3c(cnn3-c3ccccc3)CC12 (stereo not given in full) | > 100 µM (inactive) | > 100 µM (inactive) | > 100 µM (inactive) | > 100 µM (inactive) | > 100 µM (inactive) | 96.8 µM (inactive) | > 100 µM (inactive) | > 100 µM (inactive) | 
CN1N=CSC12C(=O)N(c1ccccc1)C(=O)N2c1ccccc1 (stereo not given) | > 100 µM (inactive) | > 100 µM (inactive) | > 100 µM (inactive) | > 100 µM (inactive) | > 100 µM (inactive) | > 100 µM (inactive) | > 100 µM (inactive) | > 100 µM (inactive) | < 0.01 µM (active)
C=C1CC2(CCS(=O)(=O)c3ccccc32)OC1=O (stereo not given) | 4.4 µM (inactive) | 9.51 µM (inactive) | 13.2 µM (inactive) | 16.5 µM (inactive) | 17.5 µM (inactive) | 20.7 µM (inactive) | 3.94 µM (inactive) | 14.3 µM (inactive) | 3.63 µM (inactive)
[N-]=[N+]=Nc1ccc(S(=O)(=O)Oc2cc(OS(=O)(=O)c3ccc(N=[N+]=[N-])cc3)cc(OS(=O)(=O)c3ccc(N=[N+]=[N-])cc3)c2)cc1 | > 100 µM (inactive) | > 100 µM (inactive) | > 100 µM (inactive) | > 100 µM (inactive) | > 100 µM (inactive) | > 100 µM (inactive) | > 100 µM (inactive) | > 100 µM (inactive) | > 100 µM (inactive)
CCC1CN2CCc3cc(OC)c(OC)cc3C2CC1CC1c2cc(OC)c(OC)cc2CCN1C(=O)C1CCCN1 (stereo not given) | 24.5 µM (inactive) | 47.4 µM (inactive) | 18.8 µM (inactive) | 35.3 µM (inactive) | 19.2 µM (inactive) | 28.7 µM (inactive) |  |  | 33.7 µM (inactive)
N#Cc1ccccc1Nc1ccccc1S | 22.5 µM (inactive) | 37.6 µM (inactive) | 18 µM (inactive) | 34.5 µM (inactive) | 39.4 µM (inactive) | 37.8 µM (inactive) | 21.8 µM (inactive) |  | 89.7 µM (inactive)
CCN(CC)CCCN(c1cc(OC)cc2nccnc12)S(=O)(=O)c1ccc(C)cc1 | > 100 µM (inactive) |  | > 100 µM (inactive) | > 100 µM (inactive) | > 100 µM (inactive) | > 100 µM (inactive) | > 100 µM (inactive) | > 100 µM (inactive) | > 100 µM (inactive)
CC1=C2CCCC2C/C(=N/Nc2ccc([N+](=O)[O-])cc2[N+](=O)[O-])CC1 (stereo not given) | > 100 µM (inactive) |  | > 100 µM (inactive) | > 100 µM (inactive) | > 100 µM (inactive) | > 100 µM (inactive) | > 100 µM (inactive) | > 100 µM (inactive) | > 100 µM (inactive)
O=c1/c(=C/c2ccccc2[N+](=O)[O-])sc2nnc(-c3ccco3)n12 | 19 µM (inactive) | 25.7 µM (inactive) | 18.4 µM (inactive) | 28.7 µM (inactive) | 19.5 µM (inactive) |  | 20 µM (inactive) | 91 µM (inactive) | 25.1 µM (inactive)
COc1nc(C(=O)O)c(Cl)c(OC)c1Cl |  |  |  |  | > 100 µM (inactive) |  | > 100 µM (inactive) | > 100 µM (inactive) | 
COC(=O)[C@@]12C3=NO[C@]1(C(=O)OC)C(O[Si](C)(C)C(C)(C)C)[C@@H](OC(C)=O)[C@@H](OC(C)=O)[C@@H]2[C@@H](OCc1ccccc1)CC3 (stereo not given in full) | 4.45 µM (inactive) | > 96.2 µM (inactive) | 15.8 µM (inactive) | 6.05 µM (inactive) | > 100 µM (inactive) |  | 6.35 µM (inactive) | > 100 µM (inactive) | > 100 µM (inactive)
COc1ccc(/C=C/C(=O)c2sc(NC(=S)NC(=O)c3ccccc3F)nc2C)cc1OC |  | > 100 µM (inactive) |  | > 100 µM (inactive) | > 100 µM (inactive) |  | > 100 µM (inactive) | > 100 µM (inactive) | 22.8 µM (inactive)
CC(=O)NC1=C(NCCO)C(=O)c2ccccc2C1=O | > 50 µM (inactive) | > 50 µM (inactive) | > 50 µM (inactive) | > 50 µM (inactive) | 9.79 µM (inactive) |  |  | 24.2 µM (inactive) | 
CC(C)(C)c1cc2c3c(c1)c(=O)c1cccc4c(O)c5cccc(c2=O)c5c-3c41 | > 100 µM (inactive) |  | 35.5 µM (inactive) | 26.1 µM (inactive) | > 100 µM (inactive) |  | 10 µM (inactive) | 33.2 µM (inactive) | > 100 µM (inactive)
C=C[C@H]1C=Cc2c(OC)cccc2[C@@H]1COP1(=S)NC(C)C(c2ccccc2)O1 (stereo not given in full) | 48.5 µM (inactive) | > 100 µM (inactive) | > 100 µM (inactive) | 57.9 µM (inactive) | 75 µM (inactive) |  | 32.9 µM (inactive) | > 100 µM (inactive) | > 100 µM (inactive)
CC1SC2=NC3=C(c4ccccc4C3=O)C(c3ccc(Cl)cc3)N2C1=O (stereo not given) | > 100 µM (inactive) |  | > 100 µM (inactive) | > 100 µM (inactive) | > 100 µM (inactive) | > 100 µM (inactive) | > 100 µM (inactive) | > 100 µM (inactive) | 
O=C1c2cccc3cccc(c23)C(=O)N1CCCN1CCN(CCCN2C(=O)c3cccc4cccc(c34)C2=O)CC1 | > 100 µM (inactive) | > 100 µM (inactive) | > 100 µM (inactive) | > 100 µM (inactive) | > 100 µM (inactive) | > 100 µM (inactive) | > 100 µM (inactive) | > 100 µM (inactive) | > 100 µM (inactive)
COc1c(O)c2ccccc2c2cc(O)ccc12 | 2.59 µM (inactive) | 15.5 µM (inactive) | 2.69 µM (inactive) | 6.65 µM (inactive) | 2.01 µM (inactive) |  | 1.97 µM (inactive) | 22.5 µM (inactive) | 1.75 µM (inactive)
COc1cc(/C=C/c2ccc(Br)cc2)cc(OC)c1OC | 16.1 µM (inactive) |  | 20.2 µM (inactive) | 4.91 µM (inactive) | 13.9 µM (inactive) | 9.77 µM (inactive) | 10.4 µM (inactive) | 7.13 µM (inactive) | 6.61 µM (inactive)
NNC(=O)C(=O)NN=C(C(Cl)(Cl)CO)C(Cl)(Cl)CO | 28.2 µM (inactive) | 21.5 µM (inactive) | 16.6 µM (inactive) | 65.9 µM (inactive) | 20.1 µM (inactive) | 21.3 µM (inactive) |  | 44.5 µM (inactive) | > 100 µM (inactive)
O=C(Nc1ccccc1[N+](=O)[O-])c1ccccc1 | > 100 µM (inactive) | > 100 µM (inactive) | > 100 µM (inactive) | > 100 µM (inactive) | > 100 µM (inactive) | 64.1 µM (inactive) | 70.1 µM (inactive) | > 100 µM (inactive) | > 100 µM (inactive)
COc1ccc(N(C)CN(C)c2nc(N(C)C)nc(N(C)C)n2)cc1 | > 100 µM (inactive) | > 100 µM (inactive) |  | > 100 µM (inactive) | > 100 µM (inactive) |  | > 100 µM (inactive) | > 100 µM (inactive) | > 100 µM (inactive)
Cc1ccc2c(c1)NC(=O)C(N=[N+]=[N-])(c1ccccc1)C2=O (stereo not given) | 24 µM (inactive) | 28.1 µM (inactive) | 24.7 µM (inactive) | 12.3 µM (inactive) | 19.7 µM (inactive) |  | 34.3 µM (inactive) | 30.3 µM (inactive) | 26.1 µM (inactive)
C/C(=N/NC(=O)C[n+]1ccccc1)C(CN(CC(C)C)CC(C)C)C(=O)Nc1ccc(C)cc1C (stereo not given) |  |  |  |  | > 100 µM (inactive) | > 100 µM (inactive) | > 100 µM (inactive) | > 100 µM (inactive) | 
